One may read the IC50 as the concentration that inhibits the measured activity by half. Low values mean inhibition by little substance, high ones a need for much substance.

A short description of this assay: Cytotoxicity against human HL60 cells after 48 hrs by MTT assay. The note with it: HL-60, 48 h. The assay is classed as functional, cell-based.
`C[C@@H](C(=O)O)c1c([C@@]2(C)CCCC(C)(C)C2)ccc2c1CN(CC(=O)O)C2=O`: the half-maximal inhibitory concentration (IC50) was over 10 µM.
In the case of `CC(C)CCN1Cc2c(ccc([C@@]3(C)CCCC(C)(C)C3)c2[C@@H](C)C(=O)O)C1=O` it was over 10 µM.
Consider `C[C@@H](C(=O)O)c1c([C@@]2(C)CCCC(C)(C)C2)ccc2c1CN(CCc1cnc[nH]1)C2=O`, for which the IC50 is over 10 µM.
With `C[C@@H](C(=O)O)c1c([C@@]2(C)CCCC(C)(C)C2)ccc2c1CN(CCc1ccccc1)C2=O`, the IC50 is over 10 µM.
As to `C[C@@H](C(=O)O)c1c([C@@]2(C)CCCC(C)(C)C2)ccc2c1C(=O)N(CC(=O)O)C2`, the IC50 was over 10 µM.
`COC(=O)CN1Cc2c(ccc([C@@]3(C)CCCC(C)(C)C3)c2[C@@H](C)C(=O)O)C1=O` returned an IC50 of over 10 µM.
`C[C@@H](C(=O)O)c1c([C@@]2(C)CCCC(C)(C)C2)ccc2c1CN(CCN)C2=O` yielded an IC50 of over 10 µM.
Regarding `CC(C)CN1Cc2c(ccc([C@@]3(C)CCCC(C)(C)C3)c2[C@@H](C)C(=O)O)C1=O`, the IC50 is over 10 µM.
The same measure for `CCC(C)CN1Cc2c(ccc([C@@]3(C)CCCC(C)(C)C3)c2[C@@H](C)C(=O)O)C1=O` (some centres undefined): over 10 µM.

For the origin of these results see ChEMBL document CHEMBL3351925, “The Oxeatamides: nitrogenous spongian diterpenes from the New Zealand marine sponge Darwinella oxeata” (J Nat Prod, 2014).
